The nature of test [1]: NIH-3T3 fibroblast cytotoxicity, dose response, cytotoxicity control, cell-based, fluorescence, Alamar Blue, secondary assay (AID 2327).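 Further: NIH-3T3 mouse fibroblasts cultured with fluconazole at 8 µg/mL.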 Type of test: functional. (In general: Alamar Blue is a resazurin reagent that responds to reducing activity.)
Another test deals with Genome polyprotein (dengue virus type 2, UniProt P29990). Nature of the test: Dengue-2 NS5 methyltransferase inhibitors, primary screen, biochemical, confirmation dose response (AID 588689). Type of test: functional.
A short description of test [2]: C. albicans growth with fluconazole, confirmation, fluorescence, retest (AID 2467). The format is functional, cell-based.
For test [3], the target named is High affinity nerve growth factor receptor (Homo sapiens, UniProt P04629). The format is functional.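 Further: NTRK1 tested as one member of a kinome-wide profiling panel.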
Chain of High affinity nerve growth factor receptor (P04629 whole entry, canonical isoform): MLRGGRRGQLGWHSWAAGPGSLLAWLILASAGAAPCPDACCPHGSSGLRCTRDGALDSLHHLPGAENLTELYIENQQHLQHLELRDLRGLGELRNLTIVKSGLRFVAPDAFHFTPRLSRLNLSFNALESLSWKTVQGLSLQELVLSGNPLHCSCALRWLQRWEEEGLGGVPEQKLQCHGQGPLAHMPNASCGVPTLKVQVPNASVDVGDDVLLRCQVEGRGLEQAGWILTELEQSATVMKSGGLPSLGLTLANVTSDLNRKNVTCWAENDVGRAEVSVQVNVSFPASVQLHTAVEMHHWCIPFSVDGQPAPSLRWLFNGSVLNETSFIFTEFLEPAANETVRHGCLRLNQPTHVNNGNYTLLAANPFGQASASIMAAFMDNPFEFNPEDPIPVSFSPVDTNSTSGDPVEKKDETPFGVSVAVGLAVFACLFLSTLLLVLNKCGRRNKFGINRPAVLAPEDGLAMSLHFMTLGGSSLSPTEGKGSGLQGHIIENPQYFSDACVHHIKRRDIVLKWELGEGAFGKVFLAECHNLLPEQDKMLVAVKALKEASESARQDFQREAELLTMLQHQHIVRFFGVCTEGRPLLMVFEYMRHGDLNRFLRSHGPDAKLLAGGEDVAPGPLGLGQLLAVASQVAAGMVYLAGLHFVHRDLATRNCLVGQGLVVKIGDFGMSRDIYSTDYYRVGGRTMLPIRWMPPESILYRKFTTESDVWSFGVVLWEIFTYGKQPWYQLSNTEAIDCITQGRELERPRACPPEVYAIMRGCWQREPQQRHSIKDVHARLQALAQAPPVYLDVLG
In test [4] the target is Casein kinase I isoform alpha (Homo sapiens, UniProt P48729). Type of test: functional.
Chain of Casein kinase I isoform alpha (P48729 whole entry, canonical isoform): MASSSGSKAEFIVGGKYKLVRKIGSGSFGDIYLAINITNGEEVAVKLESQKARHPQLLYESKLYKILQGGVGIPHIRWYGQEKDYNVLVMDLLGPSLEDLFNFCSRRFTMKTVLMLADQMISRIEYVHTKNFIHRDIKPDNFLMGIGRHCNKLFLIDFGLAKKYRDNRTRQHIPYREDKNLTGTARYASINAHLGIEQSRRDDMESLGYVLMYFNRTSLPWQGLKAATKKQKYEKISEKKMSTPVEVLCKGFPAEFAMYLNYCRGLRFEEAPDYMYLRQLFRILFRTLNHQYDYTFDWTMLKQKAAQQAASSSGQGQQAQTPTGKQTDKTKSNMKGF
The target in test [5] is Mitogen-activated protein kinase 14 (Homo sapiens, UniProt Q16539). The format is functional.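 Further: part of a kinome-wide panel, MAPK14 entry.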
Chain of Mitogen-activated protein kinase 14 (Q16539 whole entry): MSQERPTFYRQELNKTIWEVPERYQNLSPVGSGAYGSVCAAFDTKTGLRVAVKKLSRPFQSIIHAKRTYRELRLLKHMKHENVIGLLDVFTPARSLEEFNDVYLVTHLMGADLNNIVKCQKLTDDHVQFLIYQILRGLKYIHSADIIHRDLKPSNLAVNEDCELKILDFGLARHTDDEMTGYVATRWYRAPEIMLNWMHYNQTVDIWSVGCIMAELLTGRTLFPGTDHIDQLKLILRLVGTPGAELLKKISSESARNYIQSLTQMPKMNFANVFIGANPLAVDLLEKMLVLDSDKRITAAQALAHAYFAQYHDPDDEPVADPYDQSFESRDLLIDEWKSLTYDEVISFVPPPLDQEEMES
The next test concerns the target Caspase-8 (Homo sapiens, UniProt Q14790). Briefly: caspase-8 inhibition counter-screen, dose response, selectivity assay for caspase-6 inhibitor project, biochemical, Z-IETD-R110 fluorescence, cherry-picked samples (AID 743294).
For the next test, the target named is T1, Caspase-6 (Homo sapiens, UniProt P55212).
T1 sequence (P55212 whole entry): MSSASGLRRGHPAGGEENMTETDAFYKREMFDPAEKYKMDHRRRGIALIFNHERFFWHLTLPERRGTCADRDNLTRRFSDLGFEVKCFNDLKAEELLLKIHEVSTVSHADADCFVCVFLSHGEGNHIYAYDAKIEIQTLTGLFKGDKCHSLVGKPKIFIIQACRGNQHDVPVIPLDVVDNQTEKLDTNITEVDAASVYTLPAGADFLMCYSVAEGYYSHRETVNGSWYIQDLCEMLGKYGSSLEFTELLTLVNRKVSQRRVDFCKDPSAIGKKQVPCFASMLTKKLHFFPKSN
Nature of the test: human caspase-6 inhibitors, dose response, biochemical, VEID-R110 fluorescence, cherry-pick (AID 720632).

Test [6] addresses Platelet-derived growth factor receptor beta (Homo sapiens, UniProt P09619). Type of test: functional.
The target of test [7] is Proto-oncogene tyrosine-protein kinase receptor Ret (Homo sapiens, UniProt P07949). Type of test: functional.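 Further: measured within a kinome-wide profiling panel, RET as the panel member.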
Chain of Proto-oncogene tyrosine-protein kinase receptor Ret (P07949 whole entry): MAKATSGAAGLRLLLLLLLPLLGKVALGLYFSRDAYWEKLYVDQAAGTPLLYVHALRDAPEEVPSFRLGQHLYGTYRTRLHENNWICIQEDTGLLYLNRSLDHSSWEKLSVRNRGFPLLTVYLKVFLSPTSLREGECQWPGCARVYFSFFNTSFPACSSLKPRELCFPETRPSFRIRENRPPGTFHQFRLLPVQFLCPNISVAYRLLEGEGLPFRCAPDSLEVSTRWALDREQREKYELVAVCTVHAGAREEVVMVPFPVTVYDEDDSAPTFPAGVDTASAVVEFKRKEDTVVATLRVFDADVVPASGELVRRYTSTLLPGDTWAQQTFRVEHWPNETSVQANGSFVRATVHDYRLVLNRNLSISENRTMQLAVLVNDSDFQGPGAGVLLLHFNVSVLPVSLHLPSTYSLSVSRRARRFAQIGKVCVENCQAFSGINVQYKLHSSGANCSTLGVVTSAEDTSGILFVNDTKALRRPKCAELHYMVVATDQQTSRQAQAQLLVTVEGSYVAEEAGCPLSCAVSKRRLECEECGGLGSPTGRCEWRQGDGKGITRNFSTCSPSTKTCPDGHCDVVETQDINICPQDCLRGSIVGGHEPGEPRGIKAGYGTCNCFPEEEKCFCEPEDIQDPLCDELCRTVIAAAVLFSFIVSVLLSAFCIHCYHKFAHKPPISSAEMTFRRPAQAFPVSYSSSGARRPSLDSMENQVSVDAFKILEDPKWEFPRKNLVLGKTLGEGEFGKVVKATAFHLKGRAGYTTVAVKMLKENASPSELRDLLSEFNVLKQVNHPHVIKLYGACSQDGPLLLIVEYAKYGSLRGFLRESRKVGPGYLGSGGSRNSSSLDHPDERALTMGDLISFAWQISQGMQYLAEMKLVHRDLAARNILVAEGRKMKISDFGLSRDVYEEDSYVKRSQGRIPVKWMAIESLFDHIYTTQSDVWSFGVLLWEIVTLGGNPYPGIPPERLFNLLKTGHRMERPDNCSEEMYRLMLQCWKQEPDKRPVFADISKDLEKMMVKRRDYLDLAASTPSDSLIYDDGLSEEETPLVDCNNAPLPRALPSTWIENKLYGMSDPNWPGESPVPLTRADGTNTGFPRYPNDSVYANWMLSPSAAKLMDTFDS
The target in a further test is Focal adhesion kinase 1 (Homo sapiens, UniProt Q05397). The format is functional.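 Further: measured as one member of a kinome panel.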
Test [8] is described as follows: growth suppression of PTEN-null colon cells, dose response, cell-based, HCT116 PTEN knockout (AID 1047).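 Further: HCT116 colon tumor cells with PTEN knocked out; cells exposed to compound for 60 hours before readout; potency for loss of cell viability measured by luminescence.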 Type of test: functional.
Test [9] in a line: HepG2 cell cytotoxicity, dose response, cytotoxicity control, dry powder samples (AID 720568). The format is functional, cell-based.
Test [10] concerns the target T2, DNA repair protein RAD52 homolog (Homo sapiens, UniProt P43351).
T2 sequence (P43351 whole entry): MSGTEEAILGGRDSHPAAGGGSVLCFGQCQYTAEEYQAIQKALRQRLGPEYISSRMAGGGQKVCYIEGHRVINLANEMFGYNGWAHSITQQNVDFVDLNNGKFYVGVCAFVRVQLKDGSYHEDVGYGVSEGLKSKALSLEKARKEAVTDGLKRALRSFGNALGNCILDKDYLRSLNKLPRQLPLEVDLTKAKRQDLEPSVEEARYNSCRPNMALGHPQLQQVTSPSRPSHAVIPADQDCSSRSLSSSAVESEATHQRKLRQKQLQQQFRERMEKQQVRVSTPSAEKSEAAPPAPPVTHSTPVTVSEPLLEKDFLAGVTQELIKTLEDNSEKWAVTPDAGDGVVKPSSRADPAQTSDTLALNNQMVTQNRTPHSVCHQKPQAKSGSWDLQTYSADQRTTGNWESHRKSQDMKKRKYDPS
Type of test: functional, biochemical.

For another test, the target named is Nonstructural protein 1 (Influenza A virus, UniProt Q194T2). The format is functional, Influenza A virus (A/California/07/2009(H1N1)).
Chain of Nonstructural protein 1 (Q194T2 whole entry): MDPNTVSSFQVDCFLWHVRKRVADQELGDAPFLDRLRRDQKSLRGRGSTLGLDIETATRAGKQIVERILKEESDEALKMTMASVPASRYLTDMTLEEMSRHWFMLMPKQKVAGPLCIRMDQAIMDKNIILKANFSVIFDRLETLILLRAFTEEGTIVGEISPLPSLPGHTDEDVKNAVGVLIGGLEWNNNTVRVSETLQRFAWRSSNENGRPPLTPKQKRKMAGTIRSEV
Test [11] concerns the target T3, Sentrin-specific protease 8 (Homo sapiens, UniProt Q96LD8).
T3 sequence (Q96LD8 whole entry): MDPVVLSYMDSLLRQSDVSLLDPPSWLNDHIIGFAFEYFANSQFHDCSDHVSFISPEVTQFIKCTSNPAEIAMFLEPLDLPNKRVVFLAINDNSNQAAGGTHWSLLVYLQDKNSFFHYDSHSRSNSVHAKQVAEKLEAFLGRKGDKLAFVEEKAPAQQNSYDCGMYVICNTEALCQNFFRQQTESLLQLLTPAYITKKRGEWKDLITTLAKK
Briefly: SENP8 protease inhibitors, SAR follow-up, biochemical, luminescence (AID 504501). Type of test: functional.

Test [12] deals with T4, Sentrin-specific protease 7 (Homo sapiens, UniProt Q9BQF6).
T4 sequence (Q9BQF6 whole entry): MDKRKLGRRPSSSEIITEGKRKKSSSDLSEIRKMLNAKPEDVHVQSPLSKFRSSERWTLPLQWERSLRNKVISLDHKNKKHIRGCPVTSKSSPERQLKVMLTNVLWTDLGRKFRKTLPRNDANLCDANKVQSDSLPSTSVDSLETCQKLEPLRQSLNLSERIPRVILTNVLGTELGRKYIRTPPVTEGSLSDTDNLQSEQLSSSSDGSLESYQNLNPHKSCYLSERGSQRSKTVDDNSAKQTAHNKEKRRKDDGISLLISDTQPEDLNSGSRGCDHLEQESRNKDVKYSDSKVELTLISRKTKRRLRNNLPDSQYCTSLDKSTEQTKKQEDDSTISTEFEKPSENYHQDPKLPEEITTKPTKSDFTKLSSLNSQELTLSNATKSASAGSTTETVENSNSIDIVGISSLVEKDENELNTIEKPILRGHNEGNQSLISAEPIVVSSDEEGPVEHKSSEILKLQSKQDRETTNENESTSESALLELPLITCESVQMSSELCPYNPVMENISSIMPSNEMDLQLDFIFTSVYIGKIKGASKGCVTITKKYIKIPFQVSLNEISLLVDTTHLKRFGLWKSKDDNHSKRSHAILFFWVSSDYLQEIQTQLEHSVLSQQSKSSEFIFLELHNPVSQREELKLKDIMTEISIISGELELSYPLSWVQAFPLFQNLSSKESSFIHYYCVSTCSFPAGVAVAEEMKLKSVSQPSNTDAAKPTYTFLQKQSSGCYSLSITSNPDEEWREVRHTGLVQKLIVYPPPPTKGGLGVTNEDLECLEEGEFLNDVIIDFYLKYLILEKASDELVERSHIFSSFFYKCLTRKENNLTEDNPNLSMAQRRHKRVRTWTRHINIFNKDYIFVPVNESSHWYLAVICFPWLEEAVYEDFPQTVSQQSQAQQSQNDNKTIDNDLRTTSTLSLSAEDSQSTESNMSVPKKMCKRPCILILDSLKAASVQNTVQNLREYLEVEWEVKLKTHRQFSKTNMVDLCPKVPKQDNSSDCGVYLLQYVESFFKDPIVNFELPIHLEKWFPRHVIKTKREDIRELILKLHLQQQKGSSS
Briefly: SENP7 protease inhibitors, SAR follow-up, biochemical, luminescence (AID 504497). Type of test: functional.

Calls of active or inactive are those of the source.

The text below walks through data of ChEMBL document CHEMBL1201862, “PubChem BioAssay data set” (2004).

Chain of Platelet-derived growth factor receptor beta (P09619 whole entry): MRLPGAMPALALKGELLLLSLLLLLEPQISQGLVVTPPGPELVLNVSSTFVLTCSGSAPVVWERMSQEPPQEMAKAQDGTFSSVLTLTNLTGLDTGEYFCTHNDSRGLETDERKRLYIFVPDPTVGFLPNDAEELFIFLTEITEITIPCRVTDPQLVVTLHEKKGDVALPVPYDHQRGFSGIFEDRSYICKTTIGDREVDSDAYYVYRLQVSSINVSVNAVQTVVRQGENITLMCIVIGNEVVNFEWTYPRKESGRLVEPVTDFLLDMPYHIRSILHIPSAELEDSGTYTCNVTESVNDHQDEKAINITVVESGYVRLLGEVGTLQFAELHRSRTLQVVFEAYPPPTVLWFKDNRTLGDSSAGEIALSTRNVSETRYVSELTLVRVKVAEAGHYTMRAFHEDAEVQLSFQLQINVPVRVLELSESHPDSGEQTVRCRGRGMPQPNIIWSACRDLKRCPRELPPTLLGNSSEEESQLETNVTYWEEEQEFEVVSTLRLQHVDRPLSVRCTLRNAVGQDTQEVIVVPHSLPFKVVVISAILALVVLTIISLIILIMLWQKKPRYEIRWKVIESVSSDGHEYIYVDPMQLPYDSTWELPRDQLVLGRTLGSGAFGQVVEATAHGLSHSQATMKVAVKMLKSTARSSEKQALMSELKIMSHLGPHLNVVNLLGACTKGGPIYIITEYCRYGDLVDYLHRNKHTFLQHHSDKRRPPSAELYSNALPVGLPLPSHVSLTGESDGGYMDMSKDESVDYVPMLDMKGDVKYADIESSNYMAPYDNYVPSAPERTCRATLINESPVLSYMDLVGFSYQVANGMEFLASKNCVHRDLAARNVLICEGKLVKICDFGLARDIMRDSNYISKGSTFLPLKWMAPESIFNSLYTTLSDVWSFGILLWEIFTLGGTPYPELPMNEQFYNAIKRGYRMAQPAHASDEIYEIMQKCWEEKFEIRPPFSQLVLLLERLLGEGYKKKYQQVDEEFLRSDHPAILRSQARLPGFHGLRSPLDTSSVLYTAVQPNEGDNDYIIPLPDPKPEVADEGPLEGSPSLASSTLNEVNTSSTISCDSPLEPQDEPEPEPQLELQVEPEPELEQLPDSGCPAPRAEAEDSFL
Chain of Caspase-8 (Q14790 217-374 limits assumed): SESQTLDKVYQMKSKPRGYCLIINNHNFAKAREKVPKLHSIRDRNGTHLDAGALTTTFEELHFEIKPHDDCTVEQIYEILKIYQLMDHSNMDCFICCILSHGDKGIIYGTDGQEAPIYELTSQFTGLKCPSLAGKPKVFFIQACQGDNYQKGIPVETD
Chain of Caspase-8 (Q14790 385-479 limits assumed): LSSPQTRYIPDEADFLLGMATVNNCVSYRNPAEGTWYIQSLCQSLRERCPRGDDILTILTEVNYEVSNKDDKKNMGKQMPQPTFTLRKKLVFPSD

A word on the EC50: it is the concentration giving half of the maximal effect. Usually IC50 stands for the concentration at which inhibition is half-maximal. In the case of `O=C(O)c1ccc2c(c1)[C@@H]1C=CC[C@@H]1[C@H](c1ccccn1)N2`, the EC50 in [1] is > 150 µM (inactive); in test [2], > 38 µM (not active). Further, the IC50 on Genome polyprotein was 26.3 µM (active).
One may read the Ki as the dissociation constant of the complex between target and ligand, obtained from inhibition or displacement. Take `O=C1Nc2cc(-c3ccc(O)cc3)ccc2C1=Cc1ccc[nH]1`: the Ki in test [3] is 2 µM (active); in test [4] it was > 3.98 µM (inactive); in [5], 2.51 µM (active).
What is called AC50 is the concentration at which the activity in the assay is half-maximal. Consider `Oc1nc(Nc2ccc(F)cc2)cc2ccccc12`, for which the AC50 is 2.48 µM (active) at Caspase-8 and 0.942 µM (active) at Caspase-6.
On to `NC(COc1cncc(-c2ccc3c(c2)C(=Cc2ccc[nH]2)C(=O)N3)c1)Cc1ccccc1` (stereo not drawn), for which the Ki in test [6] was 0.00316 µM (active); in test [7] it was 0.00501 µM (active); at Focal adhesion kinase 1 it was 2 µM (active); in test [3], 0.0631 µM (active); in test [4], 2 µM (active); in [5] it was 0.631 µM (active).
In the case of `CCN(CC)CCOc1ccc2c(c1)C(=NNC(=O)c1ccccn1)c1cc(OCCN(CC)CC)ccc1-2`, in [8], the EC50 is 3.25 µM (active). The AC50 is 6.14 µM (active) in test [9] and < 0.15 µM (active) in test [10]. The IC50 at Nonstructural protein 1 is 13.8 µM (active).
`O=C1Cc2cc(-c3ccccc3)cnc2N1`: the inhibition constant Ki in [6] was 50.1 µM (active).
Take `COc1cc2cc(NC(C)=O)cc(NCc3ccccc3)c2cc1OC`: the IC50 was > 99 µM (inactive) in test [11] and 67.6 µM (active) in test [12].
Consider `CN(C)c1cc(N/N=C\c2ccccc2)nc(N(C)C)n1`, for which the figures for the IC50 in test [11] and in test [12] were 31.7 µM (active) and 16.2 µM (active), respectively.
